For one assay, the system named is phospho-p300 (Ser1834). Description: Immunoblot with phospho-p300 (Ser1834) antibody. Type of assay: cell-based, human. The conditions noted are these: within 15 min, compared to un-stimulated cells. The protocol: Immunoblots: Cell lysates were prepared in lysis buffer containing 20 mM Tris-HCl pH 7.5, 150 mM NaCl, 1 mM EDTA, 1 mM EGTA, 1 mM sodium fluoride, 1 mM sodium orthovanadate, 2.5 mM sodium pyrophosphate, protease inhibitor cocktail (Sigma-Aldrich) and 1% (v/v) Triton X-100. The lysates were electrophoretically resolved on a 4-12% NuPAGE® Bis-Tris gels (Invitrogen Corporation, Burlington, ON, Canda), followed by transfer to nitrocellulose membranes (Millipore, Canada). The membranes were subsequently probed with either phospho-p300 (Ser1834) polyclonal antibody, monoclonal antibody against phospho-DAPK (Ser308) or monoclonal antibody to glyceraldehyde-3-phosphate dehydrogenase (GAPDH) in TBST (20 mM Tris pH 7.5, 150 mM NaCl, 0.1% Tween 20) containing 5% skimmed milk powder. Affinity purified HRP-linked horse anti-mouse or goat anti-rabbit antibodies were used for detection as required. The membranes were development with Amersham ECL detection system (GE Healthcare, Baie d'Urfe QC, Canada) according to the manufacturer's instructions.
Immunoblots: Cell lysates were prepared in lysis buffer containing 20 mM Tris-HCl pH 7.5, 150 mM NaCl, 1 mM EDTA, 1 mM EGTA, 1 mM sodium fluoride, 1 mM sodium orthovanadate, 2.5 mM sodium pyrophosphate, protease inhibitor cocktail (Sigma-Aldrich Canada Inc.) and 1% (v/v) Triton X-100. […]
(In general: Immunoblotting shows a protein as a band on a membrane.)

Assay [1] deals with Human fibroblast-like synovial (FLS) cells. Description: ELISA of chemokine production in FLS tissue culture supernatants. Type of assay: cell-based. The procedure:
ELISA immunoassay: Tissue culture supernatants were centrifuged at 1500× g for 5-7 min to obtain cell-free samples and the aliquots were stored at −20° C. until further use. Production of chemokine Gro-α was monitored in the tissue culture supernatants by ELISA employing human Gro-α DuoSet (R&D Systems Inc.) as per the manufacturer's instructions. Production of cytokine TNF-α was monitored in the tissue culture supernatants using specific antibody pairs from eBioscience, Inc., and production of IL-8 was monitored using specific antibody pairs from R&D Systems, Inc., as per the manufacturer's instructions. The concentration of the cytokines or chemokines in the tissue culture supernatants was evaluated by establishing a standard curve with serial dilutions of the recombinant human cytokines or chemokines as required.
ELISA immunoassay: Tissue culture supernatants were centrifuged at 1500× g for 5-7 min to obtain cell-free samples and the aliquots were stored at −20° C. until further use. Production of chemokine Gro-α was monitored in the tissue culture supernatants by ELISA employing human Gro-α DuoSet (R&D Systems Inc.) per the manufacturer's instructions. […] The concentrations of the cytokines or chemokines in the tissue culture supernatants were evaluated by establishing a standard curve with serial dilutions of the recombinant human cytokines or chemokines as required.
(An ELISA detects its analyte on a solid surface through an enzyme-linked reagent.)

Assay [2] relates to NF-κB in rabbit synoviocyte HIG-82 cells. The assay can be described thus: NF-κB-reporter luminescence assay. Type of assay: cell-based. The note with it: rabbit synovial fibroblast cell line HIG-82, 4 and 6 hr. The procedure: NF-κB-reporter luminensence assay: Rabbit synoviocyte HIG-82 cells were transiently transfected with pNFκB-MetLuc2-Reporter Vector (Clontech laboratories Inc., Mountain View, Calif., USA) or the provided control vector as per the manufacturer's instructions. Various stimulants were added to the transfected cells in culture media containing 1% (v/v) FBS. The cells were stimulated with either recombinant human IL-32 or IL-17, and in parallel with known activators of NF-κB such as pro-inflammatory recombinant human cytokines TNF-αand IL-1β, or bacterial lipopolysaccharide (LPS), for 4 or 6 hr. The activation of NF-κB was monitored by employing the Ready-To-Glow Secreted NF-κB Luciferase Reporter Assay (Clontech) as per the manufacturer's instructions.
NF-κB-reporter luminensence assay: In order to monitor direct NF-κB activation in synoviocytes, a rabbit synoviocyte cell line, HIG-82 (ATCC® CRL-1832) was transiently transfected with pNFκB-MetLuc2-Reporter Vector (Clontech laboratories Inc., Mountain View, Calif., USA) or the provided control vector as per the manufacturer's instructions. Various stimulants were added to the transfected cells in culture media containing 1% (v/v) FBS. […] The activation of NF-κB was monitored by employing the Ready-To-Glow Secreted NF-κB Luciferase Reporter Assay (Clontech Laboratories Inc.) per the manufacturer's instructions.

Entries after “also recorded” stand apart in the source; their conditions may differ.

As to “IL-17: Recombinant human cytokine IL-17A/F from eBioscience, used as stimulant”, the “Phosphorylation of p300 (Ser1834) by immunoblot” value in the assay on phospho-p300 (Ser1834) was “increased phosphorylation”. Further, the “Chemokine Gro-α production” value in assay [1] was “robust induction; also recorded: robust Gro-α production”. Further, in assay [1] (TNF-α 10 ng/mL plus cytokine 20 ng/mL, 24 hr), the “Effect on TNF-α-induced chemokine Gro-α production” value is recorded as “synergistically enhanced”. The “Activation of transcription factor NF-κB” value in assay [2] is “induced direct activation; also recorded: activated”.

Values taken from patent US20130123201A1, “MODULATION OF CYTOKINE-INDUCED CHRONIC INFLAMMATORY RESPONSES” (UNIVERSITY OF MANITOBA, priority 2010, published 2013).
